Test results reported in US20090018111A1, “Novel Antimicrobial Medicament” (priority 2004, published 2009).
Like-named read-outs stand apart in the source and are kept apart here.

Columns and labels:
Experiment in all cases: Sensitivity test (agar dilution), clinical isolate
[1] = tested on: P. aeruginosa 13224; assay type: cell-based, Pseudomonas aeruginosa
Description: (§1) In addition, the antibacterial activities were tested against strains which are comparatively less sensitive to β-lactam compounds, namely clinically isolated 13 strains of Acinetobacter calcoaceticus and Acinetobacter lwoffi, clinically isolated 11 strains of Serratia marcescens, clinically isolated 12 strains of Burkholderia cepacia, and clinically isolated 15 strains of Pseudomonas aeruginosa.
(§2) According to the standard method of Japan Chemotherapeutic Society (Chemotherapy, vol. […], p 76-79 (1981)) the test was carried out using the agar dilution method. After dissolving test samples in distilled water, agar medium containing the test samples was prepared in such a manner that the final concentration became twice serial dilution by pouring serially diluted combination drug solution or a single drug solution into agar medium. As agar medium was used Mueller Hinton Agar medium (MHA). Then, each strain was cultivated over night at 37° C. in an incubator and suspended in buffered saline solution with gelatin (BSG) in the concentration of about 10^6 CFU/ml. The suspension (about 5 μl) containing test strains was inoculated to the medium containing the test samples by Micro Planter.
(§3) Each drug was weighed, and dissolved in distilled water to give a test sample. When the drugs are used in combination, two kinds of solution containing each drug were mixed so as to be various ratio of concentration to give a mixed solution. When the sample is subjected to sensitivity test, this mixed solution was diluted by twice serial dilution method.
(§4) Furthermore, when the drug is solely used, each test sample was used as it is, and diluted by twice serial dilution method from the maximum concentration to the minimum concentration.

[2] = tested on: P. aeruginosa 12790; assay type: cell-based, Pseudomonas aeruginosa; conditions: read-out: MIC
Description: as §1, §2, §3, §4

[3] = tested on: P. aeruginosa 13285; assay type: cell-based, Pseudomonas aeruginosa
Description: as §1, §2, §3, §4

[4] = tested on: P. aeruginosa 13245; assay type: cell-based, Pseudomonas aeruginosa
Description: as §1, §2, §3, §4

[5] = tested on: P. aeruginosa 13280; assay type: cell-based, Pseudomonas aeruginosa
Description: as §1, §2, §3, §4

[6] = tested on: P. aeruginosa 12789; assay type: cell-based, Pseudomonas aeruginosa
Description: as §1, §2, §3, §4

[7] = tested on: P. aeruginosa 13221; assay type: cell-based, Pseudomonas aeruginosa; conditions: read-out: MIC
Description: as §1, §2, §3, §4

[8] = tested on: P. aeruginosa 15032; assay type: cell-based, Pseudomonas aeruginosa
Description: as §1, §2, §3, §4

[9] = tested on: P. aeruginosa 15036; assay type: cell-based, Pseudomonas aeruginosa
Description: as §1, §2, §3, §4

[10] = tested on: P. aeruginosa 13269; assay type: cell-based, Pseudomonas aeruginosa
Description: as §1, §2, §3, §4

[11] = tested on: P. aeruginosa 13250; assay type: cell-based, Pseudomonas aeruginosa
Description: as §1, §2, §3, §4

[12] = tested on: P. aeruginosa 15039; assay type: cell-based, Pseudomonas aeruginosa
Description: as §1, §2, §3, §4

[13] = tested on: P. aeruginosa 15040; assay type: cell-based, Pseudomonas aeruginosa
Description: as §1, §2, §3, §4

[14] = tested on: P. aeruginosa 13272; assay type: cell-based, Pseudomonas aeruginosa
Description: as §1, §2, §3, §4

[15] = tested on: B. cepacia 14427; assay type: cell-based, Burkholderia cepacia
Description: as §1, §2, §3, §4

Measured: MIC

C[C@H]1C=C(c2csc(SC3=C(C(=O)O)N4C(=O)[C@H]([C@@H](C)O)[C@H]4[C@H]3C)n2)CN1 [SM, (4R,5S,6S)-6-[(1R)-1-Hydroxyethyl]-4-methyl-3-({4-[(5S)-5-methyl-2,5-dihydro-1H-pyrrol-3-yl]-1,3-thiazol-2-yl}sulfanyl)-7-oxo-1-azabicyclo[3.2.0]hept-2-ene-2-carboxylic acid]
1 µg/mL: [4]; Pseudomonas aeruginosa, 13245, Concomitant (ME:SM = 2:1) | [6]; Pseudomonas aeruginosa, 12789, Concomitant (ME:SM = 1:2) | [8]; Pseudomonas aeruginosa, 15032, Concomitant (ME:SM = 2:1) | [9]; Pseudomonas aeruginosa, 15036, Concomitant (ME:SM = 2:1) | [15]; Burkholderia cepacia, 14427, Concomitant (ME:SM = 1:1) | [15]; Burkholderia cepacia, 14427, Concomitant (ME:SM = 1:2)
8 µg/mL: [1]; Pseudomonas aeruginosa, 13224, Concomitant (ME:SM = 1:4) | [3]; Pseudomonas aeruginosa, 13285, Concomitant (ME:SM = 1:2) | [4]; Pseudomonas aeruginosa, 13245, Concomitant (ME:SM = 1:4) | [5]; Pseudomonas aeruginosa, 13280, Concomitant (ME:SM = 1:2) | [6]; Pseudomonas aeruginosa, 12789, alone | [8]; Pseudomonas aeruginosa, 15032, Concomitant (ME:SM = 1:4) | [8]; Pseudomonas aeruginosa, 15032, alone | [9]; Pseudomonas aeruginosa, 15036, Concomitant (ME:SM = 1:4) | [9]; Pseudomonas aeruginosa, 15036, alone | [10]; Pseudomonas aeruginosa, 13269, Concomitant (ME:SM = 1:4) | [11]; Pseudomonas aeruginosa, 13250, alone | [12]; Pseudomonas aeruginosa, 15039, Concomitant (ME:SM = 1:1) | [13]; Pseudomonas aeruginosa, 15040, Concomitant (ME:SM = 1:4) | [14]; Pseudomonas aeruginosa, 13272, Concomitant (ME:SM = 1:4) | [15]; Burkholderia cepacia, 14427, alone
0.031 µg/mL: [7]; Pseudomonas aeruginosa, 13221, Concomitant (ME:SM = 2:1)
0.125 µg/mL: [7]; Pseudomonas aeruginosa, 13221, Concomitant (ME:SM = 1:1)
0.5 µg/mL: [6]; Pseudomonas aeruginosa, 12789, Concomitant (ME:SM = 1:1) | [11]; Pseudomonas aeruginosa, 13250, Concomitant (ME:SM = 1:1) | [11]; Pseudomonas aeruginosa, 13250, Concomitant (ME:SM = 1:2) | [15]; Burkholderia cepacia, 14427, Concomitant (ME:SM = 2:1)
0.016 µg/mL: [2]; Pseudomonas aeruginosa, 12790, Concomitant (ME:SM = 2:1)
0.25 µg/mL: [2]; Pseudomonas aeruginosa, 12790, Concomitant (ME:SM = 1:2) | [2]; Pseudomonas aeruginosa, 12790, Concomitant (ME:SM = 1:4) | [6]; Pseudomonas aeruginosa, 12789, Concomitant (ME:SM = 2:1) | [7]; Pseudomonas aeruginosa, 13221, Concomitant (ME:SM = 1:2) | [7]; Pseudomonas aeruginosa, 13221, Concomitant (ME:SM = 1:4) | [11]; Pseudomonas aeruginosa, 13250, Concomitant (ME:SM = 2:1)
4 µg/mL: [1]; Pseudomonas aeruginosa, 13224, Concomitant (ME:SM = 1:1) | [1]; Pseudomonas aeruginosa, 13224, Concomitant (ME:SM = 1:2) | [2]; Pseudomonas aeruginosa, 12790, alone | [3]; Pseudomonas aeruginosa, 13285, Concomitant (ME:SM = 1:1) | [5]; Pseudomonas aeruginosa, 13280, Concomitant (ME:SM = 1:1) | [5]; Pseudomonas aeruginosa, 13280, Concomitant (ME:SM = 2:1) | [10]; Pseudomonas aeruginosa, 13269, Concomitant (ME:SM = 1:1) | [10]; Pseudomonas aeruginosa, 13269, Concomitant (ME:SM = 1:2) | [12]; Pseudomonas aeruginosa, 15039, Concomitant (ME:SM = 2:1) | [13]; Pseudomonas aeruginosa, 15040, Concomitant (ME:SM = 1:1) | [13]; Pseudomonas aeruginosa, 15040, Concomitant (ME:SM = 1:2) | [14]; Pseudomonas aeruginosa, 13272, Concomitant (ME:SM = 1:1) | [14]; Pseudomonas aeruginosa, 13272, Concomitant (ME:SM = 1:2)
16 µg/mL: [1]; Pseudomonas aeruginosa, 13224, alone | [3]; Pseudomonas aeruginosa, 13285, Concomitant (ME:SM = 1:4) | [4]; Pseudomonas aeruginosa, 13245, alone | [5]; Pseudomonas aeruginosa, 13280, Concomitant (ME:SM = 1:4) | [7]; Pseudomonas aeruginosa, 13221, alone | [10]; Pseudomonas aeruginosa, 13269, alone | [12]; Pseudomonas aeruginosa, 15039, Concomitant (ME:SM = 1:2) | [12]; Pseudomonas aeruginosa, 15039, Concomitant (ME:SM = 1:4) | [13]; Pseudomonas aeruginosa, 15040, alone | [14]; Pseudomonas aeruginosa, 13272, alone
2 µg/mL: [1]; Pseudomonas aeruginosa, 13224, Concomitant (ME:SM = 2:1) | [3]; Pseudomonas aeruginosa, 13285, Concomitant (ME:SM = 2:1) | [4]; Pseudomonas aeruginosa, 13245, Concomitant (ME:SM = 1:1) | [4]; Pseudomonas aeruginosa, 13245, Concomitant (ME:SM = 1:2) | [6]; Pseudomonas aeruginosa, 12789, Concomitant (ME:SM = 1:4) | [8]; Pseudomonas aeruginosa, 15032, Concomitant (ME:SM = 1:1) | [8]; Pseudomonas aeruginosa, 15032, Concomitant (ME:SM = 1:2) | [9]; Pseudomonas aeruginosa, 15036, Concomitant (ME:SM = 1:1) | [9]; Pseudomonas aeruginosa, 15036, Concomitant (ME:SM = 1:2) | [10]; Pseudomonas aeruginosa, 13269, Concomitant (ME:SM = 2:1) | [11]; Pseudomonas aeruginosa, 13250, Concomitant (ME:SM = 1:4) | [13]; Pseudomonas aeruginosa, 15040, Concomitant (ME:SM = 2:1) | [14]; Pseudomonas aeruginosa, 13272, Concomitant (ME:SM = 2:1) | [15]; Burkholderia cepacia, 14427, Concomitant (ME:SM = 1:4)
0.063 µg/mL: [2]; Pseudomonas aeruginosa, 12790, Concomitant (ME:SM = 1:1)
32 µg/mL: [3]; Pseudomonas aeruginosa, 13285, alone | [5]; Pseudomonas aeruginosa, 13280, alone | [12]; Pseudomonas aeruginosa, 15039, alone
